Results reported in PMC10286312, “Elimination Resistance: Characterizing Multi-compartment Toxicokinetics of the Neonicotinoid Thiacloprid in the Amphipod Gammarus pulex Using Bioconcentration and Receptor-Binding Assays” (Environmental Science & Technology, 2023).

Molecular target: T1, nAChRs (nicotinic acetylcholine receptors) in G. pulex membrane protein extract
T1 construct: gene nAChR alpha; native whole-animal crude membrane protein pellet (43,000g)
Test: equilibrium binding to membrane protein, unlabelled ligand, ultracentrifugation, online-SPE LC-HRMS/MS
Set-up: species or system Gammarus pulex
Settings: 10 mM Tris-HCl pH 7.4, 23 °C, 2 h; one-site specific binding model; no displacement control described; read-out: best fit
From the text: equilibrium binding to membrane protein, unlabelled ligand, ultracentrifugation, online-SPE LC-HRMS/MS on nAChRs (nicotinic acetylcholine receptors) in G. pulex membrane protein extract

Q: For `N#C/N=C1\SCCN1Cc1ccc(Cl)nc1` [thiacloprid], which Kd is on record?
A: The Kd was 0.41 nM.
